Counter-ions that a name gives are not always drawn.
What was measured:
[1] = target: T1, hNav1.7 (Homo sapiens (Human), UniProt Q15858); assay: Patch voltage clamp electrophysiology assay (EP), Syncropatch 384PE, CHO cells expressing Nav1.7; format: cell-based; conditions: holding potential -50 mV; […] compound incubation; read-out: EP_SP hNav1.7 (Ex. 243B) IC50
Protocol: Electrophysiological Assay (EP) (In Vitro Assay)
The following voltage clamp electrophysiology studies were performed on representative compounds using cells heterologously expressing Nav1.7 or Nav1.5 channels. cDNAs for Nav1.7 (NM_002977) and Nav1.5 (AC137587) were stably expressed in Chinese Hamstr Ovary (CHO) cells and CHL (Chinese Hamster Lung) cells respectively. […] Internal solution consists of (in mM): 110 […], 10 […], 20 EGTA, and 10 Hepes (pH adjusted to 7.2); and external solution contains (in mM): 60 NMDG, 80 NaCl, 4 KCl, 1 MgCl2, 2 CaCl2, 2 D-Glucose monohydrate, 10 Hepes (pH adjusted to 7.4 with NaOH).
The chip is moved into the measuring head and the instrument primes the chip with external and internal solutions. […] cells are added to the chip from a cell hotel, and a negative pressure of −50 mBar is applied to form a seal. Following treatment with seal enhancer solution and wash-off with external solution, negative pressure of −250 mbar is applied for 1 second to achieve the whole-cell configuration, followed by three washing steps in external solution. 20 μl of compounds is added to 40 μl in each well (1:3 dilution of compounds), and after mixing, 20 μl is removed so the volume is retained at 40 μl.
For voltage protocol, an holding potential of −50 mV is applied during the whole experiment. A depolarizing step is applied to −10 mV for 10 ms, followed by a hyperpolarization step to −150 mV for 20 ms to allow channel recovery from inactivation. A second depolarizing step is applied from −150 mV to −10 mV for 10 ms, where currents were measured to derive blocking effects of compounds. Inhibition is determined based on 7.5 min of compound incubation.
Target sequence in this assay (Q15858 other isoform, or with tags, fused parts or gaps): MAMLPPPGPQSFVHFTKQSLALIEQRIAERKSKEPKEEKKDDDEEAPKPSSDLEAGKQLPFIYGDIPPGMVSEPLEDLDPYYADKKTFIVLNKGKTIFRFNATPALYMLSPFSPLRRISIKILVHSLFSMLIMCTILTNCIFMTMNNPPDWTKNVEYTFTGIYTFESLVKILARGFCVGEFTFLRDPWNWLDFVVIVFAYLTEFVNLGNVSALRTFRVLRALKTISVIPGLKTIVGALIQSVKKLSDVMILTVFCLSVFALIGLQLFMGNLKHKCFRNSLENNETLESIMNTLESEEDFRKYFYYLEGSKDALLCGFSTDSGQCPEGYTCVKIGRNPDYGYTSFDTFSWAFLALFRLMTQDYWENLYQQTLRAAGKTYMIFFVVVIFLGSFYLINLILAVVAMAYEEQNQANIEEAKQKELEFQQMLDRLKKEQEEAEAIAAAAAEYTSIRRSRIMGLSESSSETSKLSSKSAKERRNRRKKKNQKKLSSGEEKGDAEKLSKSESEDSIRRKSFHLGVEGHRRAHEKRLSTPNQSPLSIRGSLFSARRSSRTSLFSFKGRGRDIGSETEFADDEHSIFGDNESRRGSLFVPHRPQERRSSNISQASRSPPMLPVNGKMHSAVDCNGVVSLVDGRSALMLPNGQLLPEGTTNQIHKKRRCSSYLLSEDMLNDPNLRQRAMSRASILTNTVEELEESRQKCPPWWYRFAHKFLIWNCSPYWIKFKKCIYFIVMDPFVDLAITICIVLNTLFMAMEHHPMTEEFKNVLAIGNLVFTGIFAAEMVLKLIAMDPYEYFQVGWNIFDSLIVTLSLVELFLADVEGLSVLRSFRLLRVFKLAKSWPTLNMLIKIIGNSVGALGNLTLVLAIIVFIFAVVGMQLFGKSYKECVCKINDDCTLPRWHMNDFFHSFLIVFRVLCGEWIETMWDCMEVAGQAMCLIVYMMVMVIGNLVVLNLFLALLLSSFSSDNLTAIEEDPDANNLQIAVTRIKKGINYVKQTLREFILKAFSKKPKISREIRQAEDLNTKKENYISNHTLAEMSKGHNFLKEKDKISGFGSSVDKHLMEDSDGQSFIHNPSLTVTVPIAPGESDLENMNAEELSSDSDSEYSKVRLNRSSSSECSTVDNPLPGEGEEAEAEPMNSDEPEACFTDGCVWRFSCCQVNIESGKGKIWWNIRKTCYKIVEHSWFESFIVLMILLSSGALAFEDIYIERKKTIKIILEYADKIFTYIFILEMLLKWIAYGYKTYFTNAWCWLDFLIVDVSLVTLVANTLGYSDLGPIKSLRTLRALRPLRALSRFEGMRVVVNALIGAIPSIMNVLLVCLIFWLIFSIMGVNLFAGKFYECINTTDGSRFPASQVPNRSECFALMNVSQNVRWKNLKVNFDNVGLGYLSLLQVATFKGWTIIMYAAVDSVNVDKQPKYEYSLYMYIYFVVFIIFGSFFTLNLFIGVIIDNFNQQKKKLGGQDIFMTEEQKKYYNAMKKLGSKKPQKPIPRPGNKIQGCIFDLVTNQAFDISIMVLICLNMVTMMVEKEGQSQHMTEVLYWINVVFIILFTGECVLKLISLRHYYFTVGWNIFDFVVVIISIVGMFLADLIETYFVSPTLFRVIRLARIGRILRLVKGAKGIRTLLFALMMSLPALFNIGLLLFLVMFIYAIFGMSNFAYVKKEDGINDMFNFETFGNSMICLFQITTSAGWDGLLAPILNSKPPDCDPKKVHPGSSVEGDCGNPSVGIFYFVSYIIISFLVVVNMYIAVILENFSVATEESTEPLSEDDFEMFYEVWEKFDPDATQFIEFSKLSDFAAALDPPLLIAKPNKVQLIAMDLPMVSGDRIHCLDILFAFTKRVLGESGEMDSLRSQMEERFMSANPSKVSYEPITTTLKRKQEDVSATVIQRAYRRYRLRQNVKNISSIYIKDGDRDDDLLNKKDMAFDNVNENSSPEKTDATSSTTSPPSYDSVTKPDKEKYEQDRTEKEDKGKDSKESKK

[2] = target: T1, hNav1.7; assay: Tritiated compound binding to membranes from cells expressing hNav1.7 and the β1 subunit, modified protocol (LBA, Ex. 243B); conditions: 300 pM [3H]compound, room temperature, read-out: Nav1.7 LBA (Ex. 243B) IC50
Target sequence in this assay (Q15858 whole entry, looked up): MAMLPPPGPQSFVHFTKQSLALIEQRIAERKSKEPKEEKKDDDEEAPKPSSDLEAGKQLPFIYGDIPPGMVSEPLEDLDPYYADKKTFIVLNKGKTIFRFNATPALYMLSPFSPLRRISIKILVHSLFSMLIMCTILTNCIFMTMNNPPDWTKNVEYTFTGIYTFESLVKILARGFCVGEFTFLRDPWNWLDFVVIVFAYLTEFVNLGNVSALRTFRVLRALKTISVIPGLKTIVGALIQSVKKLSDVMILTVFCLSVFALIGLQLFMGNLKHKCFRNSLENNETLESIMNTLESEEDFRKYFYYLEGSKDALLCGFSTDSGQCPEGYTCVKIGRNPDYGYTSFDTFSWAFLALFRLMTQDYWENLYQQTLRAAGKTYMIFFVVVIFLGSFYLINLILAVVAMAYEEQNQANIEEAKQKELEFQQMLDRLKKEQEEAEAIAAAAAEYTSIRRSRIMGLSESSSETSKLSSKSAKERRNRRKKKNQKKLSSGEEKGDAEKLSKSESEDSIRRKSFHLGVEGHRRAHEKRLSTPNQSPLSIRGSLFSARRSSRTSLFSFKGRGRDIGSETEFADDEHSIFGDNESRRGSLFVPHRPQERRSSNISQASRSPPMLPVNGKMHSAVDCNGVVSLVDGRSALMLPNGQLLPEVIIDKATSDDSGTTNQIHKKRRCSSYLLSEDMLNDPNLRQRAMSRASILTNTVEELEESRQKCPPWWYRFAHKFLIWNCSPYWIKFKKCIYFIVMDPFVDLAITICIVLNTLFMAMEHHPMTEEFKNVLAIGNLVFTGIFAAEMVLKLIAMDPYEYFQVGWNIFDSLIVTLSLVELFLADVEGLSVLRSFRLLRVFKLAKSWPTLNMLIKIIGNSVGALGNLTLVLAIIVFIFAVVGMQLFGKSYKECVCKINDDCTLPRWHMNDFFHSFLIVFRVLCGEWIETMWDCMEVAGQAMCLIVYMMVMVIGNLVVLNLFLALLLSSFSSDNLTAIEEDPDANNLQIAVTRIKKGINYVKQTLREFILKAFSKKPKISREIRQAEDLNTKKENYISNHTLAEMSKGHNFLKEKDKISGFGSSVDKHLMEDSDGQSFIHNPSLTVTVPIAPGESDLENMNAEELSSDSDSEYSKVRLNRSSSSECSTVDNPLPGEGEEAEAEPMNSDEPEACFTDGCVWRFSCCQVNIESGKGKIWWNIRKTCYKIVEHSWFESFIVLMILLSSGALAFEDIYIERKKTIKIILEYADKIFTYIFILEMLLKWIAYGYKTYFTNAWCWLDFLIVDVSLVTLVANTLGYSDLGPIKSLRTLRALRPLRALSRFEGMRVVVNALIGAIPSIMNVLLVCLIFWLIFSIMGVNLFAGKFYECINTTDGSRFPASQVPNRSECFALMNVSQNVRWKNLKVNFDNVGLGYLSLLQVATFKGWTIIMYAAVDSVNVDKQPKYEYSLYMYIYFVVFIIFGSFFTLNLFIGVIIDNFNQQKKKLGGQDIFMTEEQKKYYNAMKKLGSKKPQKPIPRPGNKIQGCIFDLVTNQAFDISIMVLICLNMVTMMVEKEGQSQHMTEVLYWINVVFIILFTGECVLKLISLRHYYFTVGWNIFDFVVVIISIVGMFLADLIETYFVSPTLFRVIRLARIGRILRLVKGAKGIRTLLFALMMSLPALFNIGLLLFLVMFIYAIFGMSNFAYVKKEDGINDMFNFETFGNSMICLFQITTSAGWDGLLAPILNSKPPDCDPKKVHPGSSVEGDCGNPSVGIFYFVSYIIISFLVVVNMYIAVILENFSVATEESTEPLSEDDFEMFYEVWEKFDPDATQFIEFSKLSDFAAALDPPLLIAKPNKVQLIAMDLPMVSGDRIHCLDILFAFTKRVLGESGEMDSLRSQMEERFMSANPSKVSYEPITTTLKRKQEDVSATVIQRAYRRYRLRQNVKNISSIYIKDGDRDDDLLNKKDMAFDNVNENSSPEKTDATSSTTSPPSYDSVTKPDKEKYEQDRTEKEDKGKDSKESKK
Target sequence in this assay (Q07699 whole entry partner, looked up): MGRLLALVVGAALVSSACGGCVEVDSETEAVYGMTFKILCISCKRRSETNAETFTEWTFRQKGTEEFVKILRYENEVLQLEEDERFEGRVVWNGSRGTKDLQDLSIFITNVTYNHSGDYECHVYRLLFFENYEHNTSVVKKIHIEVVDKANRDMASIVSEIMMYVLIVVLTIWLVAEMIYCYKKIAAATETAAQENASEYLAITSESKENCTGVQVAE

SMILES: CN([C@H]1C[C@@H](O)C1)[C@H]1CCCC[C@@H]1Nc1cc(F)c(S(=O)(=O)Nc2nccs2)cc1Cl [Example 156, 5-Chloro-2-fluoro-4-(((1S,2S)-2-((cis-3-hydroxycyclobutyl)(methyl)amino)cyclohexyl)amino)-N-(thiazol-2-yl)benzenesulfonamide formate]
- IC50 [1]: 0.0189 µM
- IC50 [2]: 0.316 µM

SMILES: CN(C)[C@H]1CC(F)(F)CC[C@@H]1Nc1cc(F)c(S(=O)(=O)Nc2nccs2)cc1Cl [Example 187, 5-chloro-4-(((1S,2S)-2-(dimethylamino)-4,4-difluorocyclohexyl)amino)-2-fluoro-N-(thiazol-2-yl)benzenesulfonamide formate]
- IC50 [1]: 0.00765 µM
- IC50 [2]: 0.776 µM

SMILES: CN(C)[C@H]1C[C@H]2C[C@H]2C[C@@H]1Nc1cc(F)c(S(=O)(=O)Nc2nccs2)cc1Cl [Example 214, 5-Chloro-4-(((1S,3S,4S,6R)-4-(dimethylamino)bicyclo[4.1.0]heptan-3-yl)amino)-2-fluoro-N-(thiazol-2-yl)benzenesulfonamide]
- IC50 [1]: 0.00209 µM
- IC50 [2]: 0.0531 µM

SMILES: O=S(=O)(Nc1ccncn1)c1cc(Cl)c(N[C@H]2CCCC[C@@H]2N2CC3C(C2)C3(F)F)cc1F (stereo partly drawn) [Example 183, 5-chloro-4-(((1S,2S)-2-(6,6-difluoro-3-azabicyclo[3.1.0]hexan-3-yl)cyclohexyl)amino)-2-fluoro-N-(pyrimidin-4-yl)benzenesulfonamide]
- IC50 [1]: 0.012 µM
- IC50 [2]: 0.277 µM

SMILES: O=S(=O)(Nc1ccncn1)c1cc(Cl)c(N[C@H]2CCCC[C@@H]2N2CC3CC3C2)cc1F (stereo partly drawn) [Example 151, 4-(((1S,2S)-2-(3-azabicyclo[3.1.0]hexan-3-yl)cyclohexyl)amino)-5-chloro-2-fluoro-N-(pyrimidin-4-yl)benzenesulfonamide]
- IC50 [1]: 0.0201 µM
- IC50 [2]: 0.181 µM

SMILES: O=S(=O)(Nc1nccs1)c1cc(Cl)c(N[C@H]2CCCC[C@@H]2N2CCC(F)CC2)cc1F [Example 113, 5-chloro-2-fluoro-4-(((1S,2S)-2-(4-fluoropiperidin-1-yl)cyclohexyl)amino)-N-(thiazol-2-yl)benzenesulfonamide]
- IC50 [1]: 0.0117 µM
- IC50 [2]: 0.185 µM

SMILES: CN(C)[C@H]1C[C@@H](F)CC[C@@H]1Nc1cc(F)c(S(=O)(=O)Nc2nccs2)cc1Cl [Example 192, 5-chloro-4-(((1S,2S,4S)-2-(dimethylamino)-4-fluorocyclohexyl)amino)-2-fluoro-N-(thiazol-2-yl)benzenesulfonamide]
- IC50 [1]: 0.0255 µM
- IC50 [2]: 0.324 µM

SMILES: CN(C)[C@H]1CC=CC[C@@H]1Nc1cc(F)c(S(=O)(=O)Nc2nccs2)cc1Cl [Example 141, 5-Chloro-4-(((1S,6S)-6-(dimethylamino)cyclohex-3-en-1-yl)amino)-2-fluoro-N-(thiazol-2-yl)benzenesulfonamide formate]
- IC50 [1]: 0.0127 µM
- IC50 [2]: 0.275 µM

SMILES: CN(C)[C@H]1C[C@@H](C(F)(F)F)CC[C@@H]1Nc1cc(F)c(S(=O)(=O)Nc2ccncn2)cc1C1CCC1 [Example 203, 5-cyclobutyl-4-(((1S,2S,4S)-2-(dimethylamino)-4-(trifluoromethyl)cyclohexyl)amino)-2-fluoro-N-(pyrimidin-4-yl)benzenesulfonamide]
- IC50 [1]: 0.0116 µM
- IC50 [2]: 0.0806 µM

SMILES: O=S(=O)(Nc1ccncn1)c1cc(Cl)c(N[C@H]2CCCC[C@@H]2N2CCCCC2)cc1F [Example 108, 5-chloro-2-fluoro-4-(((1S,2S)-2-(piperidin-1-yl)cyclohexyl)amino)-N-(pyrimidin-4-yl)benzenesulfonamide]
- IC50 [1]: 0.0226 µM
- IC50 [2]: 0.166 µM

SMILES: N#C[C@@H]1CCCN([C@H]2CCCC[C@@H]2Nc2cc(F)c(S(=O)(=O)Nc3nccs3)cc2Cl)C1 [Example 176, 5-Chloro-4-(((1S,2S)-2-((R)-3-cyanopiperidin-1-yl)cyclohexyl)amino)-2-fluoro-N-(thiazol-2-yl)benzenesulfonamide]
- IC50 [1]: 0.00872 µM
- IC50 [2]: 0.491 µM

SMILES: CN(C)[C@H]1C[C@@H](c2cccc(OC(F)(F)F)c2)CC[C@@H]1Nc1cc(F)c(S(=O)(=O)Nc2ccncn2)cc1Cl [Example 225, 5-Chloro-4-(((1S,2S,4S)-2-(dimethylamino)-4-(3-(trifluoromethoxy)phenyl)cyclohexyl)amino)-2-fluoro-N-(pyrimidin-4-yl)benzenesulfonamide]
- IC50 [1]: 0.000651 µM
- IC50 [2]: 0.000643 µM

SMILES: O=S(=O)(Nc1nccs1)c1cc(Cl)c(N[C@H]2CCCC[C@@H]2N2CCCC2CO)cc1F (stereo in doubt) [Example 133, 5-chloro-2-fluoro-4-(((1S,2S)-2-((S)-2-(hydroxymethyl)pyrrolidin-1-yl)cyclohexyl)amino)-N-(thiazol-2-yl)benzenesulfonamide]
- IC50 [1]: 0.0032 µM
- IC50 [2]: 0.0208 µM

SMILES: Cc1csc(NS(=O)(=O)c2cc(Cl)c(N[C@H]3CC[C@H](C(F)(F)F)C[C@@H]3N(C)C)cc2F)n1 [Example 171, 5-chloro-4-(((1S,2S,4S)-2-(dimethylamino)-4-(trifluoromethyl)cyclohexyl)amino)-2-fluoro-N-(4-methylthiazol-2-yl)benzenesulfonamide formate]
- IC50 [1]: 0.0122 µM
- IC50 [2]: 0.255 µM

SMILES: Cc1csc(NS(=O)(=O)c2cc(Cl)c(N[C@H]3CCCC[C@@H]3N(C)CCO)cc2F)n1 [Example 111, 5-chloro-2-fluoro-4-(((1S,2S)-2-((2-hydroxyethyl)(methyl)amino)cyclohexyl)amino)-N-(4-methylthiazol-2-yl)benzenesulfonamide]
- IC50 [1]: 0.0234 µM
- IC50 [2]: 0.678 µM

SMILES: CN(C)[C@@H]1C[C@@H]2C[C@@H]2C[C@H]1Nc1cc(F)c(S(=O)(=O)Nc2nccs2)cc1Cl [Example 215, 5-Chloro-4-(((1R,3R,4R,6S)-4-(dimethylamino)bicyclo[4.1.0]heptan-3-yl)amino)-2-fluoro-N-(thiazol-2-yl)benzenesulfonamide]
- IC50 [1]: 0.286 µM
- IC50 [2]: 2 µM

SMILES: O=S(=O)(Nc1cccc(F)n1)c1cc(Cl)c(N[C@H]2CCCC[C@@H]2N2CCCCC2)cc1F [Example 123, 5-chloro-2-fluoro-N-(6-fluoropyridin-2-yl)-4-(((1S,2S)-2-(piperidin-1-yl)cyclohexyl)amino)benzenesulfonamide]
- IC50 [1]: 0.00454 µM
- IC50 [2]: 0.0175 µM

SMILES: CN(C)[C@H]1CN(c2cccc(C(F)(F)F)c2)CC[C@@H]1Nc1cc(F)c(S(=O)(=O)Nc2ccncn2)cc1Cl [Example 233, 5-Chloro-4-(((3S,4S)-3-(dimethylamino)-1-(3-(trifluoromethyl)phenyl)piperidin-4-yl)amino)-2-fluoro-N-(pyrimidin-4-yl)benzenesulfonamide]
- IC50 [1]: 0.00171 µM
- IC50 [2]: 0.00982 µM

SMILES: CN(CC1(F)CC1)[C@H]1CCCC[C@@H]1Nc1cc(F)c(S(=O)(=O)Nc2nccs2)cc1Cl [Example 136, 5-chloro-2-fluoro-4-(((1S,2S)-2-(((1-fluorocyclopropyl)methyl)(methyl)amino)cyclohexyl)amino)-N-(thiazol-2-yl)benzenesulfonamide]
- IC50 [1]: 0.0301 µM
- IC50 [2]: 0.493 µM

SMILES: Cc1nc(NS(=O)(=O)c2cc(Cl)c(N[C@H]3CCCC[C@@H]3N(C)C)cc2F)sc1F [Example 211, 5-Chloro-4-(((1S,2S)-2-(dimethylamino)cyclohexyl)amino)-2-fluoro-N-(5-fluoro-4-methylthiazol-2-yl)benzenesulfonamide formate]
- IC50 [1]: 0.12 µM
- IC50 [2]: 1.43 µM

SMILES: CN1CCN([C@H]2CCCC[C@@H]2Nc2cc(F)c(S(=O)(=O)Nc3nccs3)cc2Cl)CC1 [Example 163, 5-Chloro-2-fluoro-4-(((1S,2S)-2-(4-methylpiperazin-1-yl)cyclohexyl)amino)-N-(thiazol-2-yl)benzenesulfonamide]
- IC50 [1]: 0.0181 µM
- IC50 [2]: 0.201 µM

SMILES: CCCc1cccc([C@H]2CC[C@H](Nc3cc(F)c(S(=O)(=O)Nc4ccncn4)cc3Cl)[C@@H](N(C)C)C2)c1 [Example 223, 5-Chloro-4-(((1S,2S,4S)-2-(dimethylamino)-4-(3-propylphenyl)cyclohexyl)amino)-2-fluoro-N-(pyrimidin-4-yl)benzenesulfonamide]
- IC50 [1]: 0.00145 µM
- IC50 [2]: 0.00973 µM

SMILES: CN(C)[C@H]1C[C@@H](c2cccc(C(F)(F)F)c2)CC[C@@H]1Nc1cc(F)c(S(=O)(=O)Nc2ccncn2)cc1C1CC1 [Example 230, 5-Cyclopropyl-4-(((1S,2S,4S)-2-(dimethylamino)-4-(3-(trifluormethyl)phenyl)cyclohexyl)amino)-2-fluoro-N-(pyrimidin-4-yl)benzenesulfonamide formate]
- IC50 [1]: 0.00152 µM
- IC50 [2]: 0.000627 µM

SMILES: CN(C)[C@@H]1C[C@H]2[C@@H](C[C@H]1Nc1cc(F)c(S(=O)(=O)Nc3nccs3)cc1Cl)C2(Cl)Cl [Example 197, 5-Chloro-4-(((1R,3R,4R,6S)-7,7-dichloro-4-(dimethylamino)bicyclo[4.1.0]heptan-3-yl)amino)-2-fluoro-N-(thiazol-2-yl)benzenesulfonamide formate]
- IC50 [1]: 0.00385 µM
- IC50 [2]: 0.038 µM
